This is an account of results in PubChem BioAssay (NCI).

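48-hour exposure; five concentrations; linearly interpolated endpoints. TGI: total growth inhibition.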

What all share (assay): NCI-60 cell line screen, 48 h
Experiment [1] concerns A549 NSCLC.
Experiment [2] deals with CCRF-CEM leukemia.
The test system of experiment [3] is IGROV1 ovarian.
Experiment [4] concerns MALME-3M melanoma.
Experiment [5] relates to MCF7 breast.
Experiment [6] has as its system NCI-H460 lung.
In experiment [7] the test system is OVCAR-8 ovarian.
Experiment [8] concerns SN12C renal.
Experiment [9] deals with 786-0 renal.
Experiment [10] has as its system A498 renal.

As for `NC1(C(=O)O)CCCC1`, the TGI in experiment [1], in [2], in [3], in [4], in [5] and in experiment [6] was above 625 µM throughout. Also, the TGI in experiment [7] and in experiment [8] was above 625 µM throughout.

With `CCN(CC)CCCC(C)NC(=O)c1ccc2c(c1)C(=O)c1ccccc1C2=O` (stereo not drawn), the TGI in experiment [9] was determined as 39.5 µM; in experiment [10], 42.3 µM; in experiment [1], 57.4 µM; in [2] it was 61.2 µM; in [3], 55.3 µM; in [4], 27.6 µM. Besides, the results for the TGI in experiment [6], in experiment [7] and in experiment [8] were 39.8 µM, 66 µM and 37.6 µM, respectively.

Take `CSCCC(NC(=O)OCc1ccccc1)NC(=O)OCc1ccccc1`: the TGI in [1], in [3], in experiment [6], in experiment [7] and in [8] was above 100 µM in each case.

For the molecule `O=C1c2ccccc2C(=O)c2c(O)ccc(O)c21`, the TGI in experiment [9], in experiment [10], in experiment [1], in experiment [2], in [3] and in experiment [4] was above 100 µM in each case. For the same molecule, the TGI in experiment [6], in experiment [7] and in experiment [8] was above 100 µM throughout.

Take `COC(=O)[C@H](Cc1ccccc1)NP(=O)(O)OCC1C=CC(n2cc(C)c(=O)[nH]c2=O)O1` (stereo partly drawn): the TGI in experiment [9], in [1], in [2], in experiment [3], in experiment [4] and in experiment [5] was above 100 µM each time. Moreover, the TGI in [6], in experiment [7] and in [8] was above 100 µM each time.

As to `CC(Cc1ccccc1)NC1=NCCO1` (stereo not drawn), the TGI is 85.5 µM in [10]; above 100 µM in experiment [1]; above 100 µM in [3]; above 100 µM in experiment [5]; 36.6 µM in experiment [6]; above 100 µM in experiment [7]. The molecule further gave a TGI in [8] of 53.3 µM.

Turning to `C#CC(O)/C=C/C(O)CCCC(O)CC#CC(O)C#CC(O)CCCC(O)/C=C/CCCC(=O)CCCCCCCCCCCCCCCC(O)C(O)C#CC(=O)O` (stereo not drawn), the TGI in experiment [9] is above 50 µM; in [1], above 50 µM; in experiment [2] it was 36.3 µM; in [3] it was 21.1 µM; in [4], above 50 µM; in experiment [5], above 50 µM. Further, the TGI in experiment [6], in [7] and in experiment [8] was above 50 µM in each case.

Take `COc1ccccc1NC(=O)O/N=C(/Cl)C(C)C`: the TGI worked out at 24.9 µM in experiment [9]; 29.9 µM in [10]; 34.4 µM in [1]; 3.57 µM in [2]; 32.7 µM in experiment [3]; 7.37 µM in experiment [4]. Moreover, the TGI in experiment [6] was found to be 37.5 µM; in experiment [7] it was 28.6 µM; in experiment [8], 31.7 µM.

For `CCCCCCC(C)OC(=O)/C=C(\CC(=O)OC(C)CCCCCC)C(=O)OC(C)CCCCCC` (stereo not drawn), the TGI in [9], in experiment [10], in experiment [1], in experiment [3], in experiment [4] and in [6] was above 100 µM in each case. The TGI in [7] and in [8] was above 100 µM throughout.

As to `c1ccc(N=C2SC3=NCCN3C2=Nc2ccccc2)cc1`, the TGI in experiment [10] is 36.4 µM; in experiment [2] it was 11.8 µM; in experiment [5], 24.9 µM; in experiment [6], 50.6 µM; in [7], above 100 µM; in experiment [8], 70 µM.

`CCSc1nc(N)c2c(-c3ccccc3)c3c(nc2n1)CCC3`: the TGI in experiment [1], in [2], in experiment [3], in experiment [4], in experiment [5] and in [6] was above 100 µM throughout. Further, the TGI in experiment [7] and in experiment [8] was above 100 µM each time.

For `CC(C)OC(=O)[C@@H](O)[C@H](CO)C1=CC([Si](C)(C)c2ccccc2)=CON1`, the TGI in experiment [9], in experiment [10], in experiment [1], in experiment [5], in [6] and in experiment [7] was above 100 µM in each case.

Regarding `O=c1cc(N=Nc2ccc(Cl)cc2)[nH]c(=O)[nH]1`, the TGI in experiment [9] stood at 3.21 µM; in experiment [1], 18.8 µM; in experiment [2], 4.94 µM; in experiment [3], 8.92 µM; in [4], 8.71 µM; in experiment [5], 22.8 µM. Further, the TGI in experiment [6] is 12.2 µM; in experiment [7], 12 µM; in experiment [8], 9.45 µM.

In the case of `CC(NC(=O)C(N)CC(=O)O)NC(=O)N(C)C(C)(C)C` (stereo not drawn), the TGI in experiment [9], in [1], in experiment [2], in experiment [3], in experiment [4] and in [5] was above 100 µM in each case. For the same molecule, the TGI in experiment [6], in experiment [7] and in [8] was above 100 µM throughout.

Regarding `CC(C)C1CC[C@H](C)C[C@@H]1OC(=O)C(C(=O)O[C@H]1C[C@@H](C)CCC1C(C)C)C(O)[C@@H]1OC(C)(C)O[C@H]1C1COC(C)(C)O1` (stereo partly drawn), the TGI in [9] was 31.7 µM; in experiment [1] it was 66.6 µM; in experiment [2] it was 50.2 µM; in experiment [3], 30.4 µM; in [4], 36 µM; in experiment [5] it was 22.6 µM. In addition, the TGI in experiment [6] turned out to be 32.1 µM; in experiment [7] it was 47.2 µM; in [8] it was 30 µM.

For the molecule `CC(=O)/C=C(\O)c1[nH]c(C(=O)O)cc1C1CCN(Cc2ccccc2)C1=O` (stereo not drawn), the TGI is 47.6 µM in experiment [9]; above 100 µM in [10]; 81.4 µM in [1]; 61.5 µM in experiment [3]; 46.3 µM in [4]; 65.7 µM in experiment [5]. The TGI in [6] worked out at 32.3 µM; in [7] it was 36.4 µM.
